System: Beet Armyworm (Spodoptera exigua, LAPHEG) second instar larva
Test: Bioassay on beet armyworm (BAW), 128-well diet tray assay
Assay type: in vivo
Conditions: 50 μg/cm^2 on artificial diet, 25° C., five days
Method: Example A: Bioassays on Beet Armyworm (Spodoptera exigua, LAPHEG) (“BAW”) and Cabbage Looper (Trichoplusia ni, TRIPNI) (“CL”)
Bioassays on BAW were conducted using a 128-well diet tray assay. One second instar BAW larva was placed in each well (8 wells total) of the diet tray that had been previously filled with 1 mL of artificial diet to which 50 μg/cm^2 of the test molecule (dissolved in 50 μL of 90:10 acetone-water mixture) had been applied (to each of eight wells) and then allowed to dry. Trays were covered with a clear self-adhesive cover, vented to allow gas exchange, and held at 25° C., 14:10 light-dark for five days. Percent mortality was recorded for the larvae in each well; activity in the eight wells was then averaged.

O=C(CC(F)(F)F)Nc1cc(NC(=O)[C@H]2[C@H](c3cc(Cl)cc(Cl)c3)C2(Cl)Cl)ccc1Cl (racemic) [F5, trans-rac-2,2-Dichloro-N-(4-chloro-3-(3,3,3-trifluoropropanamido)phenyl)-3-(3,5-dichlorophenyl)cyclopropane-1-carboxamide]
activity against BAW (percent mortality, averaged over eight wells): exhibited activity

CC(C(=O)Nc1cc(NC(=O)C2C(c3cc(Cl)cc(Cl)c3)C2(Cl)Cl)ccc1Cl)C(F)(F)F (racemic) [F6, trans-rac-2,2-Dichloro-N-(4-chloro-3-(3,3,3-trifluoro-2-methylpropanamido)phenyl)-3-(3,5-dichlorophenyl)cyclopropane-1-carboxamide]
activity against BAW (percent mortality, averaged over eight wells): exhibited activity

CC(CC(F)(F)F)C(=O)Nc1cc(NC(=O)C2C(c3cc(Cl)cc(Cl)c3)C2(Cl)Cl)ccc1Cl (racemic) [F8, trans-rac-2,2-Dichloro-N-(4-chloro-3-(4,4,4-trifluoro-2-methylbutanamido)phenyl)-3-(3,5-dichlorophenyl)cyclopropane-1-carboxamide]
activity against BAW (percent mortality, averaged over eight wells): exhibited activity

CC(CC(=O)Nc1cc(NC(=O)C2C(c3cc(Cl)cc(Cl)c3)C2(Cl)Cl)ccc1Cl)C(F)(F)F (racemic) [F9, trans-rac-2,2-Dichloro-N-(4-chloro-3-(4,4,4-trifluoro-3-methylbutanamido)phenyl)-3-(3,5-dichlorophenyl)cyclopropane-1-carboxamide]
activity against BAW (percent mortality, averaged over eight wells): exhibited activity

O=C(Nc1cc(NC(=O)[C@H]2[C@H](c3cc(Cl)cc(Cl)c3)C2(Cl)Cl)ccc1Cl)c1ccc(F)cc1F (racemic) [F24, trans-rac-N-(2-Chloro-5-(2,2-dichloro-3-(3,5-dichlorophenyl)cyclopropane-1-carboxamido)phenyl)-2,4-difluorobenzamide]
activity against BAW (percent mortality, averaged over eight wells): exhibited activity

O=C(Nc1cc(NC(=O)[C@H]2[C@H](c3cc(Cl)cc(Cl)c3)C2(Cl)Cl)ccc1Cl)c1cc(F)cc(F)c1 (racemic) [F26, trans-rac-N-(2-chloro-5-(2,2-dichloro-3-(3,5-dichlorophenyl)cyclopropane-1-carboxamido)phenyl)-3,5-difluorobenzamide]
activity against BAW (percent mortality, averaged over eight wells): exhibited activity

Cc1cc(C#N)ccc1C(=O)Nc1cc(NC(=O)[C@H]2[C@H](c3cc(Cl)cc(Cl)c3)C2(Cl)Cl)ccc1Cl (racemic) [F27, trans-rac-N-(2-Chloro-5-(2,2-dichloro-3-(3,5-dichlorophenyl)cyclopropane-1-carboxamido)phenyl)-4-cyano-2-methylbenzamide]
activity against BAW (percent mortality, averaged over eight wells): exhibited activity

O=C(Nc1cc(NC(=O)[C@H]2[C@H](c3cc(Cl)cc(Cl)c3)C2(Cl)Cl)ccc1Cl)c1ccc(F)cn1 (racemic) [F30, trans-rac-N-(2-Chloro-5-(2,2-dichloro-3-(3,5-dichlorophenyl)cyclopropane-1-carboxamido)phenyl)-5-fluoropicolinamide]
activity against BAW (percent mortality, averaged over eight wells): exhibited activity

O=C(Nc1cc(NC(=O)[C@H]2[C@H](c3cc(Cl)cc(Cl)c3)C2(Cl)Cl)ccc1Cl)c1ccncn1 (racemic) [F32, trans-rac-N-(2-Chloro-5-(2,2-dichloro-3-(3,5-dichlorophenyl)cyclopropane-1-carboxamido)phenyl)pyrimidine-4-carboxamide]
activity against BAW (percent mortality, averaged over eight wells): exhibited activity

O=C(Nc1cc(NC(=O)[C@H]2[C@H](c3cc(Cl)cc(Cl)c3)C2(Cl)Cl)ccc1Cl)c1ccco1 (racemic) [F34, trans-rac-N-(2-Chloro-5-(2,2-dichloro-3-(3,5-dichlorophenyl)cyclopropane-1-carboxamido)phenyl)furan-2-carboxamide]
activity against BAW (percent mortality, averaged over eight wells): exhibited activity

O=C(Nc1cc(NC(=O)[C@H]2[C@H](c3cc(Cl)cc(Cl)c3)C2(Cl)Cl)ccc1Cl)c1nc(C(F)(F)F)cs1 (racemic) [F36, trans-rac-N-(2-Chloro-5-(2,2-dichloro-3-(3,5-dichlorophenyl)cyclopropane-1-carboxamido)phenyl)-4-(trifluoromethyl)thiazole-2-carboxamide]
activity against BAW (percent mortality, averaged over eight wells): exhibited activity

O=C(Nc1cc(NC(=O)[C@H]2[C@H](c3cc(Cl)cc(Cl)c3)C2(Cl)Cl)ccc1Cl)c1cc(=O)[nH]o1 (racemic) [F37, trans-rac-N-(2-Chloro-5-(2,2-dichloro-3-(3,5-dichlorophenyl)cyclopropane-1-carboxamido)phenyl)-3-oxo-2,3-dihydroisoxazole-5-carboxamide]
activity against BAW (percent mortality, averaged over eight wells): exhibited activity

O=C(Nc1cc(NC(=O)C2C(c3cc(Cl)cc(Cl)c3)C2(Cl)Cl)ccc1Cl)C1CCCO1 (racemic) [F38, trans-rac-N-(2-Chloro-5-(2,2-dichloro-3-(3,5-dichlorophenyl)cyclopropane-1-carboxamido)phenyl)tetrahydrofuran-2-carboxamide]
activity against BAW (percent mortality, averaged over eight wells): exhibited activity

CC(Oc1ccccc1)C(=O)Nc1cc(NC(=O)C2C(c3cc(Cl)cc(Cl)c3)C2(Cl)Cl)ccc1Cl (racemic) [F41, trans-rac-2,2-Dichloro-N-(4-chloro-3-(2-phenoxypropanamido)phenyl)-3-(3,5-dichlorophenyl)cyclopropane-1-carboxamide]
activity against BAW (percent mortality, averaged over eight wells): exhibited activity

N#CC1(C(=O)Nc2cc(NC(=O)[C@H]3[C@H](c4cc(Cl)cc(Cl)c4)C3(Cl)Cl)ccc2Cl)CC1 (racemic) [F43, trans-rac-2,2-Dichloro-N-(4-chloro-3-(1-cyanocyclopropane-1-carboxamido)phenyl)-3-(3,5-dichlorophenyl)cyclopropane-1-carboxamide]
activity against BAW (percent mortality, averaged over eight wells): exhibited activity

O=C(Nc1cc(NC(=O)C2C(c3cc(Cl)cc(Cl)c3)C2(Cl)Cl)ccc1Cl)C1CC1(F)F (racemic) [F44, trans-rac-2,2-Dichloro-N-(4-chloro-3-(2,2-difluorocyclopropane-1-carboxamido)phenyl)-3-(3,5-dichlorophenyl)cyclopropane-1-carboxamide]
activity against BAW (percent mortality, averaged over eight wells): exhibited activity

C=CCC(=O)Nc1cc(NC(=O)[C@H]2[C@H](c3cc(Cl)cc(Cl)c3)C2(Cl)Cl)ccc1Cl (racemic) [F47, trans-rac-N-(3-But-3-enamido-4-chlorophenyl)-2,2-dichloro-3-(3,5-dichlorophenyl)cyclopropane-1-carboxamide]
activity against BAW (percent mortality, averaged over eight wells): exhibited activity

O=C(Cc1c(F)cc(F)cc1F)Nc1cc(NC(=O)[C@H]2[C@H](c3cc(Cl)cc(Cl)c3)C2(Cl)Cl)ccc1Cl (racemic) [F49, trans-rac-2,2-Dichloro-N-(4-chloro-3-(2-(2,4,6-trifluorophenyl)acetamido)phenyl)-3-(3,5-dichlorophenyl)cyclopropane-1-carboxamide]
activity against BAW (percent mortality, averaged over eight wells): exhibited activity

CC(=O)NCC(=O)Nc1cc(NC(=O)[C@H]2[C@H](c3cc(Cl)cc(Cl)c3)C2(Cl)Cl)ccc1Cl (racemic) [F51, trans-rac-N-(3-(2-Acetamidoacetamido)-4-chlorophenyl)-2,2-dichloro-3-(3,5-dichlorophenyl)cyclopropane-1-carboxamide]
activity against BAW (percent mortality, averaged over eight wells): exhibited activity

O=C(Nc1cc(NC(=O)C2C(c3cc(Cl)cc(Cl)c3)C2(Cl)Cl)ccc1Cl)C1CCCN1CC(F)(F)F (racemic) [F52, trans-rac-N-(2-Chloro-5-(2,2-dichloro-3-(3,5-dichlorophenyl)cyclopropane-1-carboxamido)phenyl)-1-(2,2,2-trifluoroethyl)pyrrolidine-2-carboxamide]
activity against BAW (percent mortality, averaged over eight wells): exhibited activity

O=C(Nc1ccc(Cl)c(NC(=O)C(F)(F)C(F)F)c1)[C@H]1[C@H](c2cc(Cl)cc(Cl)c2)C1(Cl)Cl (racemic) [F55, trans-rac-2,2-Dichloro-N-(4-chloro-3-(2,2,3,3-tetrafluoropropanamido)phenyl)-3-(3,5-dichlorophenyl)cyclopropane-1-carboxamide]
activity against BAW (percent mortality, averaged over eight wells): exhibited activity

O=C(Nc1ccc(Cl)c(NC(=O)C(F)(F)c2ccccc2)c1)[C@H]1[C@H](c2cc(Cl)cc(Cl)c2)C1(Cl)Cl (racemic) [F57, trans-rac-2,2-Dichloro-N-(4-chloro-3-(2,2-difluoro-2-phenylacetamido)phenyl)-3-(3,5-dichlorophenyl)cyclopropane-1-carboxamide]
activity against BAW (percent mortality, averaged over eight wells): exhibited activity

O=C(CN1CCOCC1)Nc1cc(NC(=O)[C@H]2[C@H](c3cc(Cl)cc(Cl)c3)C2(Cl)Cl)ccc1F (racemic) [F63, trans-rac-2,2-Dichloro-3-(3,5-dichlorophenyl)-N-(4-fluoro-3-(2-morpholinoacetamido)phenyl)cyclopropane-1-carboxamide]
activity against BAW (percent mortality, averaged over eight wells): exhibited activity

O=C(Nc1cc(NC(=O)[C@H]2[C@H](c3cc(Cl)cc(Cl)c3)C2(Cl)Cl)ccc1Cl)c1ccccc1F (racemic) [F65, trans-rac-N-(2-Chloro-5-(2,2-dichloro-3-(3,5-dichlorophenyl)cyclopropane-1-carboxamido)phenyl)-2-fluorobenzamide]
activity against BAW (percent mortality, averaged over eight wells): exhibited activity

O=C(Nc1cc(NC(=O)[C@H]2[C@H](c3cc(Cl)cc(Cl)c3)C2(Cl)Cl)ccc1Cl)c1cccc(F)c1 (racemic) [F66, trans-rac-N-(2-Chloro-5-(2,2-dichloro-3-(3,5-dichlorophenyl)cyclopropane-1-carboxamido)phenyl)-3-fluorobenzamide]
activity against BAW (percent mortality, averaged over eight wells): exhibited activity

From patent publication US20240343681A1, “MOLECULES HAVING PESTICIDAL UTILITY AND INTERMEDIATES AND PROCESSES RELATED THERETO” (priority 2021, published 2024)
